US20240423933A1, “DRUGS FOR TREATING NEURODEVELOPMENTAL DISORDERS” (President and Fellows of Harvard College, priority 2021, published 2024)
“Also recorded” adds a separate entry of the source. Where a SMILES comes first, the peptide text is derived from it. [ ]: non-standard residue; d: D form. αMeP = C[C@@]1(C(=O)O)CCCN1

Assays:
[1] = tested on: MeCP2 knockdown Xenopus laevis; experiment: Tongue thickness and GI tract ib4+ staining in MeCP2 knockdown tadpoles; format: in vivo
Source text: Treatment with vorinostat in Xenopus laevis also had impacts on GI tract inflammation and nociceptive innervation. The role of MeCP2 knockdown in GI tract inflammation and nociceptive innervation by staining for isolectin B4-positive (ib4+) cells.

[2] = tested on: MeCP2-knockdown (MeCP2−/Y) mice; experiment: MeCP2 knockdown mouse study, daily i.p. treatment from p31; format: in vivo; settings: vorinostat 50 mg/kg i.p. daily, relative to vehicle-treated MeCP2-knockdown mice
Description: Wild-type and MeCP2-knockdown (MeCP2^−/Y) mice (a Rett mouse model) were treated starting at day 31 post-partum (p31) via daily intraperitoneal (i.p.) administration of trofinetide (100 mg/kg) or vorinostat (50 mg/kg) until day 51 of age (FIG. 7A). Behavorial assays were performed at days 35-39 and days 49-53, before sacrificing the mice and harvesting organs at day 54.

[3] = tested on: MeCP2 knockdown Xenopus laevis tadpoles; experiment: alpha-tubulin acetylation and cilia in tissues of MeCP2 knockdown tadpoles; format: in vivo
Description: Xenopus laevis tadpoles having an MeCP2 knockdown were generated using CRISPR-Cas9 technology. Xenopus embryos were fertilized and maintained at 14° C. until the 4-cell stage. Each cell was injected with ˜2 nL ribonucleoprotein (a mixture of sgRNAs targeting the MeCP2 gene and Cas9 enzyme). No adverse effects to development were observed, as all embryos developed to the swimming tadpole stages (Nieuwkoop-Faber stages 45-50) with no apparent loss of viability or morphological defect.
Specifically, tadpole tissues were assessed for alpha-tubulin acetylation and bidirectional shifts in acetylation patterns were observed depending on the tissue type.

[4] = tested on: MeCP2-knockdown (MeCP2-/Y) mice; experiment: MeCP2 knockdown mouse study, treatment after onset of symptoms (oral vorinostat); format: in vivo; settings: for survival after 3 weeks of treatment: MeCP2-knockdown animals; for colocalization of acetylated a-tubulin with neuronal staining in the colon: bIII- and acetylated alpha-tubulin staining; for colon vacuolization and neutrophil infiltrate (histology): colon sections of MeCP2-knockdown animals; for overall mobility scores (mobility, gait, hindlimb clasping) / diarrhea scores: relative to vehicle-treated MeCP2-knockdown animals; for overall mobility scores (mobility, gait, hindlimb clasping): FIG. 9B; for diarrhea scores: FIG. 9C
Description: Mice were treated with either trofinetide or vorinostat, and change in animal weight (g) and Cumulative Severity Score were assessed.
MeCP2-knockdown (MeCP2-/Y) mice were dosed approximately one week after the onset of symptoms with an oral formulation of vorinostat.
Additionally, the overall mobility scores (based on mobility, gait, and hindlimb clasping) and the diarrhea scores were improved for MeCP2-knockdown animals treated with vorinostat and trofinetide, relative to vehicle-treated MeCP2-knockdown animals (FIG. 9B and 9C, respectively). […] There was also an overall increase of hyperacetylated a-tubulin in bronchioles of MeCP2-Vy animals that vorinostat restored (FIG. 9E). Finally, vorinostat treatment rescued the disrupted a-tubulin acetylation observed in femoral muscle sections (FIG. 9F).
Initial histological analysis of the colon indicated a greater degree of vacuolization and heightened neutrophil infiltrate in MeCP2-knockdown animals, which vorinostat and trofinetide reversed. […] Vorinostat also normalized the ratio of acetylated alpha-tubulin to bIII-tubulin (FIG. 9G).

[5] = tested on: MeCP2 knockdown Xenopus laevis tadpoles; experiment: Tadpole viability in the MeCP2 knockdown model; format: in vivo; settings: for tadpole viability: MeCP2 knockdown model, FIGS. 6A-6B; for animals survived until Day 10: MeCP2 knockdown tadpoles, no vehicle-treated animal survived beyond Day 6
Source text: 100% of MeCP2 knockdown animals treated with vorinostat survived until Day 10; over 50% of MeCP2 knockdown animals treated with trofinetide survived until Day 10. Conversely, none of the MeCP2 knockdown animals treated with vehicle survived beyond Day 6.

Naïve C57BL6 mice = experiment: Elevated Plus Maze test; format: in vivo, mouse; settings: FIGS. 11A-11B
[6] = tested on: MeCP2 knockdown Xenopus laevis tadpoles; experiment: Seizure Score in MeCP2 knockdown tadpoles; format: in vivo; settings: MeCP2 knockdown tadpoles treated Day 1 to Day 6, relative to vehicle
Source text: Seizure Score data for wild-type and MeCP2 knockdown was collected for Xenopus laevis tadpoles treated with drug (trofinetide or vorinostat) or vehicle from Day 1 to Day 6, after which they were placed back in medium.

O=C(CCCCCCC(=O)Nc1ccccc1)NO [vorinostat, N′-hydroxy-N-phenyloctanediamide]
tongue thickness ([1]; MeCP2 knockdown animals, FIG. 3A): restored normal tongue thickness; also recorded: restores normal tongue vertical thickness | ib4+ expression in the GI tract ([1]; MeCP2 knockdown tadpoles, isolectin B4 staining, FIG. 3B): reversed that ib4+ expression; also recorded: restores normal ib4+ expression | neurological function (elevated plus maze and spatial novelty Y-maze performance) ([2]; FIG. 7D): improved neurological function | diarrhea score ([2]; FIG. 7E): improved diarrhea score | a-tubulin hyperacetylation in the GI tract ([3]; FIG. 2C): reversed that hyperacetylation | hyper-acetylation in olfactory multi-ciliated cells ([3]; microtubules and alpha-tubulin): reverses hyper-acetylation | effects related to microtubules and cilia length ([3]; nostril multiciliated cells, FIGS. 2A-2B): reversed those effects | hyperacetylated a-tubulin in bronchioles ([4]; FIG. 9E): restored | a-tubulin acetylation in femoral muscle sections ([4]; FIG. 9F): rescued | survival after 3 weeks of treatment [4]: 100% | colocalization of acetylated a-tubulin with neuronal staining in the colon [4]: normalized | colon vacuolization and neutrophil infiltrate (histology) [4]: reversed | ratio of acetylated alpha-tubulin to bIII-tubulin ([4]; colon, FIG. 9G): normalized | breathing (score) ([4]; compared to trofinetide and vehicle treatments, FIG. 9D): significantly improved | performance in EPM and Y mazes ([4]; oral vorinostat 50 mg/kg): increased performance | weight gain ([4]; oral vorinostat 50 mg/kg): ameliorated weight gain | Cumulative Severity Score / symptom severity score ([4]; oral vorinostat 50 mg/kg, mice treated at 35 days of age after onset of severe symptoms, FIG. 9A): more effective than trofinetide; also recorded: prevented significant worsening | overall mobility scores (mobility, gait, hindlimb clasping) [4]: improved | diarrhea scores [4]: improved | tadpole viability [5]: improves Xenopus laevis tadpole viability | tadpole viability ([5]; listed as Vorinostat): improve Xenopus laevis tadpole viability | animals survived until Day 10 [5]: 100% | behavior in anxiety, activity and novelty seeking (Naïve C57BL6 mice): restored behavior in anxiety, activity and novelty seeking; also recorded: restores naïve C57BL6 behavior | seizures (Seizure Score) [6]: reduced seizures

C[C@@]1(C(=O)N[C@@H](CCC(=O)O)C(=O)O)CCCN1C(=O)CN [trofinetide, (2S)-2-[[(2S)-1-(2-aminoacetyl)-2-methylpyrrolidine-2-carbonyl]amino]pentanedioic acid] (H-Gly-[αMeP]-Glu-OH)
survival after 3 weeks of treatment [4]: about 60% | colocalization of acetylated a-tubulin with neuronal staining in the colon [4]: normalized | colon vacuolization and neutrophil infiltrate (histology) [4]: reversed | overall mobility scores (mobility, gait, hindlimb clasping) [4]: improved | diarrhea scores [4]: improved | animals survived until Day 10 [5]: over 50% | seizures (Seizure Score) [6]: reduced seizures
